Experimental data reported in patent EP3466279B1, “PRODUCTION METHOD OF COMPOSITION USING INSECT AS A RAW MATERIAL” (National University Corporation Ehime University, priority 2016, dated 2017).

Experiments:
[1] = system: mouse macrophage cell line (RAW264 cells); assay type: cell-based
[2] = system: mouse macrophage cell line (RAW264 cells); assay: Immunosuppressive action: inhibition of LPS-induced nitrogen monoxide production; assay type: cell-based; details: LPS 100 ng/mL; 1,2-benzenediol 0 µg/mL to 10 µg/mL; FIG. 4
Experimental: A substance contained in Antheraea yamamai pupae and Bombyx mori pupae and having an immunosuppressive action on humans or animals having ate the insects was identified. Distilled water was added to a dry powder of Antheraea yamamai pupae and a dried powder of Bombyx mori pupae and the mixture was stirred and centrifugally separated to obtain the supernatant. Ethyl acetate was added to the resultant supernatant to cause liquid-liquid partition, and the resultant ethyl acetate layer was evaporated to dryness by distilling off the solvent with a rotary evaporator. Distilled water was added to the residue, which was added to a C18 solid phase column, and the flow-through fraction was recovered. The resultant flow-through fraction was eluted with high performance liquid chromatography (Develosil C30 column), and the immunosuppressive action of each eluted fraction obtained was measured. […]
Whether 1,2-benzenediol identified from Antheraea yamamai pupae and Bombyx mori pupae has an immunosuppressive action or not was evaluated by the production of nitrogen monoxide from a mouse macrophage cell line (RAW264 cells) as an indicator.

Oc1ccccc1O [1,2-benzenediol]
growth inhibition of a mouse macrophage cell line (concentration at which confirmed) [1]: ≥ 1 µg/mL
inhibition of nitrogen monoxide production [2]: inhibition of nitrogen monoxide production was observed depending on the concentration
